According to patent US5726203A, “Qinghaosu derivatives against AIDS” (priority 1993, dated 1998):

How the values were obtained:
U937 HIV-1 [1] = assay: Inhibition effect on HIV-1 infected U937 cells, activity of reverse transcriptase; format: cell-based; conditions: control 24502
Excerpt: (§1) Furthermore, a part of the compounds according to the present invention were used to test their inhibition effect on U937 cell line (macrophage cell line)according to the methods in Experiment 1.

[2] = system: virus within infected macrophages; conditions: cited from earlier work
HIV = conditions: cited from earlier work
HIV-1 (MT4) = assay: Anti-HIV effect on MT4 cells, virus antigen expression (immunoenzymatic method); format: cell-based
Excerpt: The virus used was HIV-1 which had been obtained from Professor Montagnier of the Pastear Institute, France. The virus titer used in the experiment was 1×10^4 TCID50 /ml. The cell culture used was CEM cell line which was cultivated in the HIV laboratory of Institute of Virology, Chinese Academy of Preventive Medicine, for cultivation storage of HIV-1.
The compounds used in the experiment were qinghaosu, dihydroqinghaosu, Artesunate, Artemether, dihydroqinghaosu-methylcarbamate, dihydroqinghaosu-benzenecarbamate, qinghaosu-morpholinyl propylether maleate, dihydroqinghaosu-diethyl amino ethyl ether maleate, deoxyqinghaosu-morpholinyl ethyl ether maleate, qinghaosu-morpholinyl propanol ether maleate, qinghaosu-3,5-dimonpholinyl methyl-4-hydroxy benzyl ether maleate, dihydroqinghaosu-m-chlorobenzoate, qinghaosu-3-pyrrolidinylmethyl-4-hydroxybenzoate oxalate, and qinghaosu-3-morpholinylmethyl-4-hydroxybenzoate oxalate. […] The concentration of the original solution of these compounds were all 1 mg/ml.
(§2) a. Freshly cultured MT4 cells (5×10^5 /ml) were co-cultivated with the virus fluid (10^3 TCID50 /ml) in a CO2 incubator at 37° C. for 1-1.5 hours. RPMI 1640 complete medium (containing 10% Bovine serum and antibiotics, such as penicillin) was used to wash the unbound virus.
(§3) Complete medium was added to correct the concentration for use.
(§4) The experiment was carried out on the plates with 96 wells. 0.1 ml of the above-mentioned infected MT4 cell suspension was added into each well, and then 0.1 ml of various concentrations of the drugs were added. […] Each concentration of the drugs was added into two wells. Both the experiment group and the control group were incubated in a CO2 incubator at 37° C. The drug solution were changed 3 days later, and the following observations were carried out 6 days afterwards.
b. Observation on the growth situation of cells. Trypan blue dye was used to observe the quantity of live cells in each group.
(§5) c. Determination of the virus antigen expression. The immunoenzymatic method was used to examine the virus antigen expression. Cells from each group were separately smeared in two wells. They were fixed with cold acetone, HIV-positive serum was dropped into the wells. After incubated in a CO2 incubator at 37° C. for 30 minutes, they were washed with PBS for 3 times. Enzyme-labelled SPA was dropped into the wells. They were incubated in the same condition for 30 minutes, washed with PBS for 3 times, and then put in substrate solution to stain for 2-3 minutes, washed with distilled water, and observed under microscope. Normal cells were colorless, whereas virus-carrying cells appeared browrish red.
The mark used were as follows:
The experiment was repeated two to three times.
The concentration of the original fluid of these compounds were all 1 mg/ml. 0.1 ml was taken and added into 0.1 ml of virus-carrying cell suspension, thus the reaction concentrations were as follows: in the original fluid group, 0.1 mg/0.2 ml, i.e., 0.5 mg/ml; in 1×10^-1group, 0.05 mg/ml; in 1×10^-2 group, 0.005 mg/ml; in 1×10^-3 group, 0.0005 mg/ml, i.e., 0.5 μg/ml; and on the analogy of this.

[3] = cited from earlier work
U937 HIV-1 [4] = assay: Inhibition effect on HIV-1 infected U937 cells (macrophage cell line), HIV antigen test (IE); format: cell-based; conditions: for Antigen test (IE): U937 HIV-1
Description: as §2, §3, §4, §5, §1

Plasmodium Berghei = assay: Peters' four day inhibition test in mice, erythrocytic stage of Plasmodium Berghei; format: in vivo; conditions: once a day D0-D3, Hybrid Kunming strain mice, read-out: SD50 (the source's name)
Excerpt: Effect on Erythrocytic Stage of Plasmodium Berghei 1. "Four day inhibition test" in mice To determinate the SD50 with Peters' "four day inhibition test". Hybrid Kunming strain mice, body weight 18-22 g, were inculated with 1×10^7 parasites infected RBC intraperitoneally on D0. Dihydroqinghaosu-methylcarbamate, dihydroqinghaosu-butylcarbamate, dihydroqinghaosu-benzenecarbamate and dihydroqinghaosu-4-nitrobenzenecarbamate with different concentration were given once a day from D0 -D3. Blood smears from mouse's tail were made on D4, stained with Gimsa reagent and examined under microscope to count the infected and uninfected erthrocyte to get infected rate. Inhibitory rates of different dosages were calculated by following formula. The SD50 was calculated by the simplified probit analysis: [formula]

Acute toxicity in mice = format: in vivo; conditions: for LD50: mouse, in vivo, po
Description: Animals: Hybrid swiss strain mice (provided by Animal House of Institute of Chinese Mateia Media, China Academy of Traditional Chinese Medicine), 20-22 grams, less than 6 weeks age of both sexes fed in laboretory for 3-5 days observation and a random taking food and drinking.
Drugs: Dihydroqinghaosu-methylcarbamate and dihydroqinghaosu-benzenecarbamate.
Above two drugs in powder form were dissolved into peanut oil. The biggest dose were 2000 mg/kg and 2161 mg/kg respectively. The distances between two dose groups were 0.7 and 0.68 respectively, with 5 dose groups each drugs.
Method: The mice were given single dose of above compound respectively intragastrically, the acute intoxication manifestrations were observed the LD value (LD5, LD50 and LD95) and B value were determined by three days mortality.

[5] = Subacute toxicologic study; conditions: in vivo, read-out: basic safe dosage
HIV-infected macrophages = conditions: cited from earlier work
[6] = F + M, single dose intragastrically
[7] = F, single dose intragastrically
[8] = M, single dose intragastrically

Cc1cn([C@H]2C[C@H](N=[N+]=[N-])[C@@H](CO)O2)c(=O)[nH]c1=O [AZT, 3'-azido-3'-deoxythymidine, reference compound]
Activity of reverse transcription (CPM) (U937 HIV-1 [1]; 1 μg/ml): 10865 CPM
inhibitory effect on the virus within infected macrophages [2]: does not exert inhibitory effect on the virus within infected macrophages
anti-HIV activity in vitro (HIV): found to possess anti-HIV activity in vitro
effect on HIV-1 (MT4), virus antigen expression (HIV-1 (MT4); 1 × 10^-1 (50 μg/ml)): - (positive cells were not seen in the whole well)
virus-carrying (pink) cells on the smear (HIV-1 (MT4); 1×10^-1, 1×10^-2, 1×10^-3 group): entirely no pink cells
effect on HIV-1 (MT4), virus antigen expression (HIV-1 (MT4); 1 × 10^-2 (5 μg/ml)): - (positive cells were not seen in the whole well)
effect on HIV-1 (MT4), virus antigen expression (HIV-1 (MT4); 1 × 10^-3 (0.5 μg/ml)): - (positive cells were not seen in the whole well)
toxicity after use ([3]; 4-6 weeks after the use of AZT): inhibition of bone marrow appears, then severe anemia develops
Antigen test (IE) (U937 HIV-1 [4]; 1 μg/ml): + (there were 2-3 or more positive cells in the whole well)
inhibition on U937 infected HIV-1 (U937 HIV-1 [4]; from Table 2): does not show the inhibition

CC1CCC2C(C)C(OC(=O)Nc3ccccc3)OC3OC4(C)CCC1C32OO4 (stereo not shown) [Dihydroqinghaosu-benzenecarbamate]
ED50 (Plasmodium Berghei): 0.29 mg/kg
Activity of reverse transcription (CPM) (U937 HIV-1 [1]; 50 μg/ml): 2305 CPM
Death distribution of mice, exp./death (Acute toxicity in mice; 480 mg/kg, female): 6/0
Death distribution of mice, exp./death (Acute toxicity in mice; 480 mg/kg, female + male): 12/1
Death distribution of mice, exp./death (Acute toxicity in mice; 480 mg/kg, male): 6/1
Death distribution of mice, exp./death (Acute toxicity in mice; 686 mg/kg, female): 6/1
Death distribution of mice, exp./death (Acute toxicity in mice; 686 mg/kg, female + male): 12/3
Death distribution of mice, exp./death (Acute toxicity in mice; 686 mg/kg, male): 6/2
Death distribution of mice, exp./death (Acute toxicity in mice; 980 mg/kg, female): 6/2
Death distribution of mice, exp./death (Acute toxicity in mice; 980 mg/kg, female + male): 12/4
Death distribution of mice, exp./death (Acute toxicity in mice; 980 mg/kg, male): 6/2
Death distribution of mice, exp./death (Acute toxicity in mice; 1400 mg/kg, female): 6/4
Death distribution of mice, exp./death (Acute toxicity in mice; 1400 mg/kg, female + male): 12/7
Death distribution of mice, exp./death (Acute toxicity in mice; 1400 mg/kg, male): 6/3
Death distribution of mice, exp./death (Acute toxicity in mice; 2000 mg/kg, female): 6/6
Death distribution of mice, exp./death (Acute toxicity in mice; 2000 mg/kg, female + male): 12/12
Death distribution of mice, exp./death (Acute toxicity in mice; 2000 mg/kg, male): 6/6
LD5 (Acute toxicity in mice; [6]): 463.33 mg/kg
LD95 (Acute toxicity in mice; [6]): 2452.08 mg/kg
slope (B) (Acute toxicity in mice; [6]): 4.546
LD5 (Acute toxicity in mice; [7]): 603.91 mg/kg
LD95 (Acute toxicity in mice; [7]): 1993.51 mg/kg
slope (B) (Acute toxicity in mice; [7]): 6.343
LD5 (Acute toxicity in mice; [8]): 352.10 mg/kg
LD95 (Acute toxicity in mice; [8]): 3069.59 mg/kg
slope (B) (Acute toxicity in mice; [8]): 3.498
LD50 (Acute toxicity in mice; [6]): 1070 mg/kg
LD50 (Acute toxicity in mice; [7]): 1100 mg/kg
LD50 (Acute toxicity in mice; P.O. (per os)): 1060 mg/kg
LD50 (Acute toxicity in mice; single dose intragastrically): 1040 mg/kg
effect on HIV-1 (MT4), virus antigen expression (HIV-1 (MT4); 1 × 10^-1 (50 μg/ml)): - (positive cells were not seen in the whole well)
effect on HIV-1 (MT4), virus antigen expression (HIV-1 (MT4); 1 × 10^-2 (5 μg/ml)): - (positive cells were not seen in the whole well)
effect on HIV-1 (MT4), virus antigen expression (HIV-1 (MT4); 1 × 10^-3 (0.5 μg/ml)): - (positive cells were not seen in the whole well)
effect on HIV-1 (MT4), virus antigen expression (HIV-1 (MT4); 1 × 10^-4 (0.05 μg/ml)): ± (there were only 1-2 doubtful positive cells in whole well)
inhibition on HIV (HIV-1 (MT4); according to Table 1): distinct inhibition on HIV
Antigen test (IE) (U937 HIV-1 [4]; 50 μg/ml): - (positive cells were not seen in the whole well)
NOAEL [5]: 54 mg/kg/day

Trichosanthin
toxic substance from treated HIV-infected macrophages (HIV-infected macrophages): produced and released a soluble toxic substance which might exert serious destructive effect to human brain cells
neurotoxicity in clinical trial ([3]; clinical trial): neurotoxicity in clinical trial, and in severe cases temporary dementia and even coma appeared
